Laboratory results taken from PMC11243149, “Assessing the Effects of Thiazole-Carboxamide Derivatives on the Biophysical Properties of AMPA Receptor Complexes as a Potential Neuroprotective Agent” (Molecules, 2024).
Where two headings read alike, the source gives them in different places.

Tests used:
Type in all cases: cell-based
GluA1 = target: T1, GluA1 (Homo sapiens, UniProt P42261); assay: Whole-cell patch-clamp recordings of homomeric GluA1 AMPAR in transfected HEK293T cells; settings: for Amplitude (glutamate plus TC compound) / Amplitude, applying glutamate alone after TC compound / IC50 / A/AI / t deact / t des: GluA1; for Amplitude (glutamate plus TC compound): 10 mM glutamate + TC compound (12 µM optimal concentration), HEK293T, -60 mV, pH 7.4, 22 °C, mean ± SEM; for Amplitude (glutamate plus TC compound) / Amplitude, applying glutamate alone after TC compound: n = 10; for Amplitude, applying glutamate alone after TC compound: 10 mM glutamate alone after 20 s wash following the TC compound; for A/AI: ratio of current with glutamate alone (A) to inhibited current after TC compound (AI); for t deact: weighted tau of deactivation, 10 mM glutamate for 1 ms, glutamate alone 2.1±0.1; for t deact / t des: with TC compound; for t des: weighted tau of desensitization, 10 mM glutamate 500 ms, glutamate alone 2.5±0.1; for influence on τw des: GluA1 subunit
T1 construct: expressed in transfected cells; host or cells: HEK293T
T1 sequence (P42261 19-906 isoform P42261-2 limits assumed, species assumed): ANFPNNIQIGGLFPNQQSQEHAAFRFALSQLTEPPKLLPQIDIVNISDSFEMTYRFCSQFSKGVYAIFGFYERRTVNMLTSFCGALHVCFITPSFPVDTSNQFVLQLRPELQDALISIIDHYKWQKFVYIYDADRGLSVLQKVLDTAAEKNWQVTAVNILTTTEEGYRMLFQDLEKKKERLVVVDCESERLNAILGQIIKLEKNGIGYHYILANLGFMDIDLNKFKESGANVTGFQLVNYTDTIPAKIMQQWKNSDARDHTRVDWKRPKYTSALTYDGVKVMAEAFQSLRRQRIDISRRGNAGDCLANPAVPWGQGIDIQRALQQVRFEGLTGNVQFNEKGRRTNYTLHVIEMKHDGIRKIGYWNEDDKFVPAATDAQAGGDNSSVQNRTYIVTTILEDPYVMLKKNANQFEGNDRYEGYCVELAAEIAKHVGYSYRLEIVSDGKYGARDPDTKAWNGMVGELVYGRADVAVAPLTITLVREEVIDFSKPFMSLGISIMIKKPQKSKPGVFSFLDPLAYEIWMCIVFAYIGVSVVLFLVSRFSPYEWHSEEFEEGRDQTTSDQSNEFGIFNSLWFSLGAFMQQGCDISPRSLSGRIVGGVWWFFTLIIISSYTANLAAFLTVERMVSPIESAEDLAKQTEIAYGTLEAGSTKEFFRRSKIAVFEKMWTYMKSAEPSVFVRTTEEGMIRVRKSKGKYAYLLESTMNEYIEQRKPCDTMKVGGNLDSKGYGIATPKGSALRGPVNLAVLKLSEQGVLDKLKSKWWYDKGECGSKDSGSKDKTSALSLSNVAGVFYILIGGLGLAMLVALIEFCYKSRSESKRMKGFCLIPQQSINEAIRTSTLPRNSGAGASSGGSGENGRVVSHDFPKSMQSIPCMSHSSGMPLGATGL
Procedure: (§1) The effect of five TC compounds on whole-cell currents of four AMPAR subunits (GluA1, GluA1/2, GluA2, and GluA2/3) was investigated using transfected HEK293T cells. Each compound was applied separately to each subunit, with experiments conducted on 8–10 cells per condition to ensure reproducibility. […] At a glutamate concentration of 10 mM and a 500 ms protocol, approximately 95% of AMPAR channels were open. The A/AI ratio was calculated to compare the results, where A represents normalized current readings and AI indicates the inhibited current following TC compound exposure. […] Following closely, TC-1 inhibited the tested subunits by 5-fold.
(§2) The IC50 values were examined using GraphPad Prism software 9.5.0.730 (x64) (Table S6), which confirmed these findings. The IC50 values of TC substances were calculated by standardizing the peak current amplitudes using data obtained from 8–10 cells. Following a 500 ms exposure to the compounds, the cells were rinsed with glutamate for 20 s. Next, a solution containing just glutamate at a concentration of 10 mM was administered, and the resulting immediate induced electrical current was measured and documented (Figure 3).
(§3) In addition, an evaluation was conducted on the deactivation rates (τw deact) of all the examined chemicals to investigate their impact on the kinetics of deactivation. The chemicals were assessed for their effect on the deactivation kinetics of AMPAR subunits by briefly administering 10 mM glutamate for 1 ms to begin currents. This experimental setup allowed for the observation of τw deact under controlled conditions. […] TC-5 induced an approximately 2-fold increase in τw deact across all four tested subunits. […] These findings highlight the differential impact of TC compounds on deactivation kinetics across AMPAR subunits, shedding light on their potential neuroprotective mechanisms.
(§4) The flip isoform was uniformly employed across all AMPAR subunits in this study. These subunits were subcloned into the pRK vector and expressed in Human Embryonic kidney cells sourced (Sigma, München, Germany). HEK293T cells were grown in Dulbecco Modified Eagle Medium (DMEM) (Sigma, München, Germany) containing 10% FBS (fetal bovine serum), 0.1 mg/mL streptomycin, and 1 mM sodium pyruvate (Biological Industries; Beit-Haemek, Israel). HEK293T cells were incubated at 37 °C and 5% CO2 was supplemented to the medium. It was subcultured twice a week until cells reached pass #20. The transfection reagent used was either jetPRIME (Polyplus: New York, NY, USA) or Lipofectamine 2000 (Invitrogen; San Diego, CA, USA). Cells were kept for 36 h. after transfection in 12-well plates. Then, they were replated on coverslips coated with Laminin (1 mg/mL; Sigma, Germany) for electrophysiology recordings. Cells were then seeded in Petri dishes in DMEM supplemented with 10% fetal calf serum and antibiotics and maintained in a humidified incubator at 37 °C and 5% CO2. Highly fluorescent cells were identified and selected for recording post-transfection.
(§5) HEK293T cells were recorded for 36–48 h, at a temperature of 22 °C, with a membrane potential of −60 mV. HEK293T cells were recorded 36–48 h after transfection using IPA (Integrated Patch Amplifier) via the […], at a temperature of 22 °C, with a membrane potential of −60 mV. SutterPatch Software v. 1.1.1 (Sutter Instruments, Novato, CA, USA) was used to digitize membrane currents for a short period. The sampling frequency was set to 10 kHz, and the low-pass filter was set to 2 kHz. Borosilicate glass was used to fabricate the patch electrodes with a resistance of 2–4 MΩ. The extracellular solution contained the following (values are in mM): 150 NaCl, 2.8 KCl, 0.5 MgCl2, 2 CaCl2, and 10 HEPES, adjusted to pH 7.4 with NaOH. The pipette solution contained the following (values are in mM): 110 CsF, 30 CsCl, 4 NaCl, 0.5 CaCl2, 10 […], and 10 HEPES, adjusted to pH 7.2 with CsOH. […]

GluA1/2 = target: T2, GluA1/2 (Homo sapiens, UniProt P42261+P42262); assay: Whole-cell patch-clamp recordings of heteromeric GluA1/2 AMPAR in transfected HEK293T cells; settings: for Amplitude (glutamate plus TC compound): 10 mM glutamate + TC compound (12 µM optimal concentration), HEK293T, -60 mV, pH 7.4, 22 °C, mean ± SEM; for Amplitude (glutamate plus TC compound) / Amplitude, applying glutamate alone after TC compound: n = 10; for Amplitude, applying glutamate alone after TC compound: 10 mM glutamate alone after 20 s wash following the TC compound; for A/AI: ratio of current with glutamate alone (A) to inhibited current after TC compound (AI); for t deact: weighted tau of deactivation, 10 mM glutamate for 1 ms, glutamate alone 2.5±0.3; for t deact / t des: with TC compound; for t des: weighted tau of desensitization, 10 mM glutamate 500 ms, glutamate alone 5.2±0.5
T2 construct: expressed in transfected cells; host or cells: HEK293T
T2 sequence (P42261 19-906 isoform P42261-2 limits assumed): as the sequence (P42261 19-906 isoform P42261-2 limits assumed, species assumed) above
T2 sequence (P42262 25-883 isoform P42262-2 limits assumed): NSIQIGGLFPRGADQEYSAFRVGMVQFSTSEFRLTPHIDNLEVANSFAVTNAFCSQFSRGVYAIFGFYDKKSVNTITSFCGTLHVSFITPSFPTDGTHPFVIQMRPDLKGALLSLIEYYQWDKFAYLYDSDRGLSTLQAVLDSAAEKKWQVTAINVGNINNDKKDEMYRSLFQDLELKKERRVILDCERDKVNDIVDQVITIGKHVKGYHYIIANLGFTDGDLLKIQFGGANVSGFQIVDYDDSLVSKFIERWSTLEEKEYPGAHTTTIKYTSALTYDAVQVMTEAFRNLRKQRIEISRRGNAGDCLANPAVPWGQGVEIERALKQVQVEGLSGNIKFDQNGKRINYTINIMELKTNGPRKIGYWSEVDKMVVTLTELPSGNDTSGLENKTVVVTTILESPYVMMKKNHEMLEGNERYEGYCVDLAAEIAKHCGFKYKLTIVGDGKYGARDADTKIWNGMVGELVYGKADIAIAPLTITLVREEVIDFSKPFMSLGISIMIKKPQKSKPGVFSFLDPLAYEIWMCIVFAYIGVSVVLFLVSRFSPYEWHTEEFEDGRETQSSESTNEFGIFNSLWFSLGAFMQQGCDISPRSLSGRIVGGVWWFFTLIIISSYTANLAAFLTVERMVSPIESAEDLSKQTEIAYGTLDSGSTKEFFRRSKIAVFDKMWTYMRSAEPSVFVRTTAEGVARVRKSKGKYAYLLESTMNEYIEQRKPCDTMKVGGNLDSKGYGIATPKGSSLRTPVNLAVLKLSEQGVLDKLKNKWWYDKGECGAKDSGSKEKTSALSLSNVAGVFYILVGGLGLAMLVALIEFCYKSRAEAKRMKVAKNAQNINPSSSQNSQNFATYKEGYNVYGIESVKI
Procedure: as §1, §2, §3, §4, §5

GluA2/3 = target: T3, GluA2/3 (Homo sapiens, UniProt P42262+P42263); assay: Whole-cell patch-clamp recordings of heteromeric GluA2/3 AMPAR in transfected HEK293T cells; settings: for Amplitude (glutamate plus TC compound): 10 mM glutamate + TC compound (12 µM optimal concentration), HEK293T, -60 mV, pH 7.4, 22 °C, mean ± SEM; for Amplitude (glutamate plus TC compound) / Amplitude, applying glutamate alone after TC compound: n = 10; for Amplitude, applying glutamate alone after TC compound: 10 mM glutamate alone after 20 s wash following the TC compound; for A/AI: ratio of current with glutamate alone (A) to inhibited current after TC compound (AI); for t deact: weighted tau of deactivation, 10 mM glutamate for 1 ms, glutamate alone 2.6±0.3; for t deact / t des: with TC compound; for t des: weighted tau of desensitization, 10 mM glutamate 500 ms, glutamate alone 2.7±0.2
T3 construct: expressed in transfected cells; host or cells: HEK293T
T3 sequence (P42262 25-883 isoform P42262-2 limits assumed): as above
T3 sequence (P42263 29-894 isoform P42263-2 limits assumed): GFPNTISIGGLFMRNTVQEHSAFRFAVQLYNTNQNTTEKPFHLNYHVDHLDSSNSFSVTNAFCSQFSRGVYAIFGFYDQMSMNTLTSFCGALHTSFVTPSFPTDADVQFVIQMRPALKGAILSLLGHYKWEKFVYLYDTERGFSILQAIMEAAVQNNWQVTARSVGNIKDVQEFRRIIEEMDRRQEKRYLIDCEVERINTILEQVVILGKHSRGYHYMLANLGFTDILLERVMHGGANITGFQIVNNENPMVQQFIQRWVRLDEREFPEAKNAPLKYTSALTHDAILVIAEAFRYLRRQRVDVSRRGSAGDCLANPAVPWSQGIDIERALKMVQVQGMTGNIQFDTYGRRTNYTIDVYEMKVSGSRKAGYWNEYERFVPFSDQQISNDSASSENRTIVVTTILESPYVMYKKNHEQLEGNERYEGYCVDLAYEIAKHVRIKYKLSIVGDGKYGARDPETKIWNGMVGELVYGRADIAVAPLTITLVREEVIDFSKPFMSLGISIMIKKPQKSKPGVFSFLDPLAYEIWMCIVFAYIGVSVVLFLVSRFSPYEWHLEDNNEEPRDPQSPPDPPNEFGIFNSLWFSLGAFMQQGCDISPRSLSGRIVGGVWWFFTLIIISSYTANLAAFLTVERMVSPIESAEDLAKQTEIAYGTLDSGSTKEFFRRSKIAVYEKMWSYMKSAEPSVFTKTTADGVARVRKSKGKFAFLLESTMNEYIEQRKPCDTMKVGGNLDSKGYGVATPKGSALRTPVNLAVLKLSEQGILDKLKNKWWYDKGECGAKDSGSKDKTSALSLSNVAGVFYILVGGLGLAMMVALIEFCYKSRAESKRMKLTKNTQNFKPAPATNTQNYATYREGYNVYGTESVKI
Procedure: as §1, §2, §3, §4, §5

[1] = tested on: AMPAR subunits (GluA1, GluA1/2, GluA2, and GluA2/3); assay: Whole-cell patch-clamp recordings, statements over all tested AMPAR subunits; settings: for reduction in τw des: across all examined subunits; for increase in τw deact / decrease in AMPAR subunit activity (inhibition of the whole-cell current): all tested subunits; for increase in τw deact: 10 mM glutamate for 1 ms; for decrease in AMPAR subunit activity (inhibition of the whole-cell current): 10 mM glutamate, 500 ms protocol
Procedure: as §1
A thorough investigation was performed to assess the neuroprotective potential of the TC compounds. The influence of the five TC compounds on the desensitization traces is seen in Figure 4, namely in panels b, d, f, and h. TC-2 caused a substantial reduction in τw des in all receptor subunits, with decreases ranging from 2 to 3 times.
as §3, §4
as §5, with “CsOH. Using double barrel glass (theta tube), glutamate and the solutions of choice were rapidly administered, and the theta tube was mounted on a high-speed piezo solution switcher (Automate Scientific, Berkeley, CA, USA).” for “CsOH.”

[2] = Table S6, peak current amplitudes, 8-10 cells, GraphPad Prism fit, read-out: IC50
[3] = Table S6, read-out: Log IC50 (converted)

| Amplitude (glutamate plus TC compound) (GluA1) [pA] | Amplitude, applying glutamate alone after TC compound (GluA1) [pA] | IC50 (GluA1; [2]) [µM] | IC50 (GluA1; [3]) [µM] | A/AI (GluA1) | t deact (GluA1) [ms] | Amplitude (glutamate plus TC compound) (GluA1/2) [pA] | Amplitude, applying glutamate alone after TC compound (GluA1/2) [pA] | IC50 (GluA1/2; [2]) [µM] | IC50 (GluA1/2; [3]) [µM] | A/AI (GluA1/2) | t deact (GluA1/2) [ms] | Amplitude (glutamate plus TC compound) (GluA2/3) [pA] | Amplitude, applying glutamate alone after TC compound (GluA2/3) [pA] | IC50 (GluA2/3; [2]) [µM] | IC50 (GluA2/3; [3]) [µM] | A/AI (GluA2/3) | t deact (GluA2/3) [ms] | SMILES | t des (GluA1) [ms] | t des (GluA1/2) [ms] | further results |
| --- | --- | --- | --- | --- | --- | --- | --- | --- | --- | --- | --- | --- | --- | --- | --- | --- | --- | --- | --- | --- | --- |
| 177±20 | 848±82 | 3.42 | 3.39 | 4.91±0.1 | 5.3 ± 0.4 | 126±12 | 604±62 | 3.36 | 3.39 | 4.98±0.06 | 5.8 ± 0.4 | 102±13 | 491±61 | 3.38 | 3.39 | 4.95±0.19 | 5.6 ± 0.4 | COc1ccc(-c2nc(C(=O)Nc3ccc(OC)c(OC)c3)cs2)cc1 [TC-1] | 1.3 ± 0.1 | 3.9 ± 0.4 | decrease in τw des (GluA1/2): around 1.3 fold; t des (GluA2/3): 1.2 ± 0.3 ms; reduction in τw des [1]: roughly twofold; increase in τw deact [1]: around 2 fold; decrease in AMPAR subunit activity (inhibition of the whole-cell current) [1]: 5 fold |
| 287±38 | 799±95 | 5.73 | 5.75 | 2.97±0.03 | 3.0 ± 0.2 | 197±24 | 565±72 | 5.64 | 5.62 | 3.09±0.02 | 3.3 ± 0.3 | 159±25 | 456±76 | 5.53 | 5.5 | 3.06±0.07 | 3.4 ± 0.4 | COc1ccc(-c2nc(C(=O)Nc3ccccc3)cs2)cc1 [TC-3] | 2.0 ± 0.1 | 4.2 ± 0.3 | influence on τw des (GluA1): negligible; t des (GluA2/3): 1.8 ± 0.2 ms; reduction in τw des [1]: little effect; increase in τw deact [1]: weaker effects; decrease in AMPAR subunit activity (inhibition of the whole-cell current) [1]: ~3 fold |
| 331±50 | 816±114 | 5.88 | 5.89 | 2.53±0.02 | 2.9 ± 0.1 | 221±26 | 609±77 | 5.78 | 5.75 | 2.86±0.02 | 3.2 ± 0.4 | 183±36 | 460±95 | 5.64 | 5.62 | 2.59±0.05 | 3.3 ± 0.3 | COc1ccc(-c2nc(C(=O)Nc3ccc(C(C)(C)C)cc3)cs2)cc1 [TC-4] | 2.1 ± 0.1 | 4.4 ± 0.3 | influence on τw des (GluA1): negligible; t des (GluA2/3): 1.9 ± 0.2 ms; reduction in τw des [1]: little effect; increase in τw deact [1]: weaker effects; decrease in AMPAR subunit activity (inhibition of the whole-cell current) [1]: ~2.5 fold |
